Type in all cases: in vivo
In assay [1] the test system is ovariectomized ddY female mouse (OVX mouse). As to the kind of experiment: Blood estradiol, progesterone and cortisol by ELISA in female climacteric (OVX) mouse model. The settings on record: 10 mg/kg/day oral, 12 weeks; for decrease level of estradiol (17β-estradiol, E2) in the blood: vs. OVX negative control (FIG. 6a); for decrease level of progesterone in the blood: vs. OVX negative control (FIG. 6b). How it is done: (§1) A 10-week-old ovariectomized ddY female mouse (OVX mouse) was used as a climacteric animal model to evaluate the in vivo efficacy of Loganin (ovariectomy after 8 weeks and 2 weeks of additional feeding for recovering conditions). Sham mouse group cut the abdomen open without ovariectomy (normal control group) was used as control group, and OVX mouse group in which physiological saline alone was administered to ovariectomized mice (negative control group) and SrCl2 mouse group in which a single compound, strontium chloride (SrCl2), was orally injected at a dose of 10 mg/kg/day (comparison group of […] compound administration) were used. 10-week-old Sham-operated and ovariectomized ddY female mice were purchased from Central Laboratory Animals Co. and transferred to a clean animal breeding area after a 1-week purifying period in the quarantine room of Experimental Animal Center in Ajou University. The weight of each mouse was measured and group separation was performed so that there was no statistically significant weight difference between the experimental groups. For the experiment, a test solution of Loganin was prepared as an aqueous solution and in order to bring in the laboratory animal center, a sterilization operation was carried out by irradiating with a gamma ray by a radiation irradiation professional company, Soyagreentec Co., Ltd. In the test group, Loganin was orally injected at a dose of 10 mg/kg/day for 12 weeks and blood estrogen level, estrogen receptor alpha expression level in uterus tissue, uterine size, body weight, and fat cell size of liver and abdominal adipose tissue were measured and analyzed.
An ordinary female climacteric symptom results in a significant reduction in female hormones, i.e. estrogen and progesterone. The amount of estradiol (17β-estradiol, E2) and progesterone which are estrogen in the blood was measured by ELISA after 12 weeks of administration of Loganin to female climacteric mouse model.
In general terms: ELISA stands for enzyme-linked immunosorbent assay.

The test system of assay [2] is estrogen receptor alpha. Nature of the assay: Estrogen receptor alpha mRNA and protein expression in uterus of climacteric mouse model. The settings on record: OVX mouse, 10 mg/kg/day oral, 12 weeks; for decrease of the estrogen receptor alpha protein in uterus section: immunohistochemistry, vs. OVX negative control (FIG. 7b); for decrease of mRNA expression of the estrogen receptor alpha in uterus: vs. OVX negative control (FIG. 7a). How it is done: as §1
An ordinary female climacteric symptom results in a remarkable reduction in estrogen receptors in uterine tissue cells due to estrogen decrease. The estrogen receptor is activated by estradiol (17β-estradiol, E2) and has two classes of estrogen receptor alpha and estrogen receptor beta. In the uterus, the estrogen receptor alpha plays a more important role than the estrogen receptor beta, and during climacterium, a marked reduction in the estrogen receptor alpha causes contraction and degeneration of the uterus. The mRNA expression level of the estrogen receptor alpha gene and the estrogen receptor alpha protein expression level by immunohistochemistry of section of the uterus were analyzed after 12 weeks of administration of Loganin to climacteric mouse model followed by extirpating uterus.

Assay [3] relates to ovariectomized ddY female mouse (OVX mouse). Nature of the assay: Uterine contraction and degeneration (shape, size, thickness, weight) in climacteric mouse model. Particulars: 10 mg/kg/day oral, 12 weeks; for outward shape and size of the uterus: vs. OVX negative control (FIG. 8a); for thickness of the H & E-stained uterine section: vs. OVX negative control (FIG. 8b); for weight of the uterus: vs. OVX negative control (FIG. 8c). The protocol:
as §1
An ordinary female climacteric symptom results in uterine contraction and degeneration due to estrogen decrease. The shape, size, thickness and weight of the uterus were observed after 12 weeks of administration of Loganin to female climacteric mouse model followed by extirpating uterus. When compared to normal Sham mouse without ovariectomy, the uterus was small (FIG. 8a), the thickness of the section was thin (FIG. 8b) and the uterine weight was light (FIG. 8c) in ovariectomized OVX mouse.

Assay [4] shares this test system. As to the kind of experiment: Body weight and blood insulin and leptin (ELISA) in climacteric mouse model. The settings on record: 10 mg/kg/day oral, 12 weeks; for increase in insulin in the blood / increase in leptin in the blood: ELISA; for increase in insulin in the blood: vs. OVX negative control (FIG. 9b); for increase in leptin in the blood: vs. OVX negative control (FIG. 9c); for weight gain (body weight): vs. OVX negative control (FIG. 9a). How it is done:
as §1
An ordinary female climacteric symptom results in weight gain due to estrogen decrease. The changes in body weight of mice and the presence of insulin and leptin, the metabolic hormone proteins, were measured by ELISA after 12 weeks of administration of Loganin to female climacteric mouse model.

Assay [5] shares this test system. As to the kind of experiment: Fat accumulation in liver and fat cell size in abdominal adipose tissue (H & E staining) in climacteric mouse model. Particulars: 10 mg/kg/day oral, 12 weeks; for fat accumulation in the liver: H & E staining (FIG. 10a); for increase in fat cell size in the abdominal adipose tissue: H & E staining (FIG. 10b). How it is done: as §1
In general, when estrogen is reduced in female climacterium, new estrogen is produced from adipocytes to offset the estrogen deficiency. In this process, more fat cells are produced and can cause abdominal obesity. In other words, fat accumulation in the liver and fat cell size increase in abdominal adipose tissue are caused by the increase of insulin and leptin, which are hormone proteins related to lipid metabolism. Liver and abdominal adipose tissues of mice were extirpated and H & E stained after 12 weeks of administration of Loganin to female climacteric mouse model.

Turning to `COC(=O)C1=CO[C@@H](O[C@@H]2O[C@H](CO)[C@@H](O)[C@H](O)[C@H]2O)[C@@H]2[C@@H](C)[C@@H](O)C[C@H]12` [Loganin], in assay [1], the “decrease level of estradiol (17β-estradiol, E2) in the blood” value is reported as “significantly inhibited” and the “decrease level of progesterone in the blood” value is “significantly inhibited”. In assay [2], the “decrease of the estrogen receptor alpha protein in uterus section” value is “significantly inhibited” and the “decrease of mRNA expression of the estrogen receptor alpha in uterus” value is “significantly inhibited”. Also, in assay [3], the “outward shape and size of the uterus” value is given as “significantly inhibited”; the “thickness of the H & E-stained uterine section” value is listed as “significantly inhibited”; the “weight of the uterus” value was “significantly inhibited”. Further, in assay [4], the “increase in insulin in the blood” value is reported as “significantly inhibited”, the “increase in leptin in the blood” value is given as “significantly inhibited” and the “weight gain (body weight)” value was “significantly inhibited”. In assay [5], the “fat accumulation in the liver” value is given as “remarkably inhibited” and the “increase in fat cell size in the abdominal adipose tissue” value is “remarkably inhibited”.

Regarding `[Cl-].[Cl-].[Sr+2]` [SrCl2, strontium chloride], in assay [1], the “decrease level of estradiol (17β-estradiol, E2) in the blood” value is on record as “no difference with OVX mouse” and the “decrease level of progesterone in the blood” value is given as “no difference with OVX mouse”. Also, in assay [2], the “decrease of the estrogen receptor alpha protein in uterus section” value was “no difference with OVX mouse” and the “decrease of mRNA expression of the estrogen receptor alpha in uterus” value is reported as “no difference with OVX mouse”. Further, in assay [3], the “outward shape and size of the uterus” value is “no difference with OVX mouse”; the “thickness of the H & E-stained uterine section” value is on record as “no difference with OVX mouse”; the “weight of the uterus” value is “no difference with OVX mouse”. In assay [4], the “increase in insulin in the blood” value is on record as “no difference with OVX mouse”, the “increase in leptin in the blood” value is on record as “no difference with OVX mouse” and the “weight gain (body weight)” value is “no difference with OVX mouse”. Besides, in assay [5], the “fat accumulation in the liver” value is listed as “no difference with OVX mouse” and the “increase in fat cell size in the abdominal adipose tissue” value is “no difference with OVX mouse”.
